{"source": "patent US20040014672A1", "about": "“Novel crystalline form of 6-hydroxy-3-(4-[2-(piperidin-1-yl)ethoxy]phenoxy)-2-(4-methoxyphenyl)benzo[b]thiophene hydrochloride” (priority 2003, published 2004)", "type_in_all_cases": "physicochemical", "key": {"[1]": {"assay": "Variable temperature X-ray powder diffraction (crystal form stability)", "conditions": "up to 125° C., increments of 25° C.", "protocol": "Variable temperature X-ray powder diffraction patterns were obtained on a Siemens D5000 X-ray powder diffractometer which was equipped with a CuKα source (λ=1.54056) operated at 50 kV and 40 mA with a scintillation detector and nickel filter. The powder was packed into a top-loading, recessed temperature controlled holder and a smooth surface was obtained for diffraction. The sample was scanned from 2 to 35° 2θ at 2.5 seconds per step size of 0.04° beginning at 25° C. after an equilibration time of 5 minutes. Subsequent scans were obtained at increasing temperature increments of 25° C. to a maximum of 125° C."}, "[2]": {"assay": "Moisture sorption/desorption isotherm", "conditions": "over the range of 0-95% RH, 25° C.", "from_the_text": "It is most commonly used to study to study desolvation processes and quantatively determine the total volatile content of a solid. DSC is a technique that is often used to screen compounds for polymorphism because the temperatures(s) at which a physical change in a material occurs is usually characteristic of that material. Moisture sorption isotherms provide evaluation of the degree of hydroscopicity associated with a given material and characterization of non-hydrates and hydrates. Lastly, XRD is a technique that detects long-range order in a crystalline material. Moisture Sorption Isotherms were generated using a VTI SGA-100 flow instrument. The samples were analyzed at 25° C. from 0-95% relative humidity (RH) for adsorption and from 95-5% RH for desorption in steps of 5% RH. The adsorption and desorption isotherms were generated as a graph of the % weight change vs. % RH."}, "Aqueous solubility": {"assay": "Aqueous solubility"}}, "data": [{"smiles": "COc1ccc(-c2sc3cc(O)ccc3c2Oc2ccc(OCCN3CCCCC3)cc2)cc1.Cl", "note": "[F-V, 6-hydroxy-3-(4-[2-(piperidin-1-yl)ethoxy]phenoxy)-2-(4-methoxyphenyl)benzo[b]thiophene hydrochloride]", "values": [{"measurement": "change in the diffraction pattern on heating", "setting": "[1]", "result": "no significant change"}, {"measurement": "weight increase in moisture sorption/desorption isotherm", "setting": "[2]", "result": 0.11, "unit": "%"}, {"measurement": "higher aqueous solubility relative to F-III", "setting": "Aqueous solubility", "result": "~10", "unit": "%"}]}]}
